Assays:
Conditions in all cases: 48 h
NOMO1 [1] = assay: cell viability relative to DMSO control; higher = less cytotoxic
Procedure, shortened: (§1)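 NOMO1, SEM and P12-Ichikawa leukemia cells spent at least four passages adapting to each medium before use. They were seeded at 500 cells/well (NOMO1, SEM) or 1000 cells/well (P12-Ichikawa) in 5 μl in 1536-well plates and pin-dosed with library compounds in DMSO at 11 threefold steps from 47 μM down to 0.79 nM. After 48 h at 37°C, CellTiter-Glo One luminescence was read. Viability is reported as a percentage of the DMSO wells on each plate, with cell-free wells as background.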

P12-Ichikawa [2] = assay: as above
Procedure, shortened: as §1

SEM cells [3] = assay: as above
Procedure, shortened: as §1

NOMO1 [4] = assay: AUC of viability dose-response curve (% viability x log10 dose units); higher = less sensitive
Procedure, shortened: (§2)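 Over 48 h at 37°C, leukemia cells in 1536-well plates (500 or 1000 cells/well), adapted to each medium, received library compounds in DMSO at 11 threefold doses from 47 μM to 0.79 nM. CellTiter-Glo One luminescence, normalised per plate to DMSO and cell-free wells, was fitted by a four-parameter log-logistic function of log10 dose. The area under the curve was then integrated by trapezoidal rule, after scaling curves above full viability and removing those that failed quality control.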

P12-Ichikawa [5] = assay: as above
Procedure, shortened: as §2

SEM cells [6] = assay: as above
Procedure, shortened: as §2

CC(NCCc1ccc(O)cc1)C(O)c1ccc(O)cc1 (stereo not drawn)
cell viability [%]
Conditions	NOMO1 [1]	P12-Ichikawa [2]	SEM cells [3]
HPLM + 10% dialyzed FBS, 0.000781 µM	124	106	84.4
HPLM + 10% dialyzed FBS, 0.00234 µM	123	109	80.5
HPLM + 10% dialyzed FBS, 0.00702 µM	121	116	73
HPLM + 10% dialyzed FBS, 0.0211 µM	111	113	89
HPLM + 10% dialyzed FBS, 0.0632 µM	124	117	86.1
HPLM + 10% dialyzed FBS, 0.19 µM	120	112	84.1
HPLM + 10% dialyzed FBS, 0.569 µM	127	111	74.6
HPLM + 10% dialyzed FBS, 1.71 µM	110	103	98.7
HPLM + 10% dialyzed FBS, 5.12 µM	118	109	90.7
HPLM + 10% dialyzed FBS, 15.4 µM	97.5	106	105
HPLM + 10% dialyzed FBS, 46.1 µM	80	100	84.8
RPMI 5 mM glucose + 10% FBS, 0.000781 µM	113	114	106
RPMI 5 mM glucose + 10% FBS, 0.00234 µM	106	120	110
RPMI 5 mM glucose + 10% FBS, 0.00702 µM	107	122	109
RPMI 5 mM glucose + 10% FBS, 0.0211 µM	113	115	111
RPMI 5 mM glucose + 10% FBS, 0.0632 µM	102	110	97.5
RPMI 5 mM glucose + 10% FBS, 0.19 µM	96.2	114	103
RPMI 5 mM glucose + 10% FBS, 0.569 µM	101	125	92.5
RPMI 5 mM glucose + 10% FBS, 1.71 µM	104	116	107
RPMI 5 mM glucose + 10% FBS, 5.12 µM	105	120	98.2
RPMI 5 mM glucose + 10% FBS, 15.4 µM	94.8	99	103
RPMI 5 mM glucose + 10% FBS, 46.1 µM	95	111	99.4
RPMI 5 mM glucose + 10% dialyzed FBS, 0.000781 µM	93.4	107	133
RPMI 5 mM glucose + 10% dialyzed FBS, 0.00234 µM	114	105	119
RPMI 5 mM glucose + 10% dialyzed FBS, 0.00702 µM	109	113	122
RPMI 5 mM glucose + 10% dialyzed FBS, 0.0211 µM	99.7	109	118
RPMI 5 mM glucose + 10% dialyzed FBS, 0.0632 µM	110	115	117
RPMI 5 mM glucose + 10% dialyzed FBS, 0.19 µM	114	111	110
RPMI 5 mM glucose + 10% dialyzed FBS, 0.569 µM	102	107	90.6
RPMI 5 mM glucose + 10% dialyzed FBS, 1.71 µM	93.8	105	112
RPMI 5 mM glucose + 10% dialyzed FBS, 5.12 µM	91.3	102	105
RPMI 5 mM glucose + 10% dialyzed FBS, 15.4 µM	93.5	97	111
RPMI 5 mM glucose + 10% dialyzed FBS, 46.1 µM	77.3	90.6	81.9

AUC of viability dose-response curve
Conditions	NOMO1 [4]	P12-Ichikawa [5]	SEM cells [6]
HPLM + 10% dialyzed FBS	459	465	412
RPMI 5 mM glucose + 10% FBS	446	469	452
RPMI 5 mM glucose + 10% dialyzed FBS	451	460	413
